Key:
Format in all cases: in vivo
[1] = test system: oat, wild (wild oat, Avena fatua); experiment: Test A preemergence soil spray, visual injury rating 0-100; conditions: 10 days
Procedure, shortened: (§1)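 Greenhouse test: loam/sand pots received a surfactant-containing formulation, as a preemergence directed soil spray or a postemergence spray on young plants. Injury was judged visually at day 10 relative to untreated controls.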

kochia (Bassia scoparia) [2] = experiment: as above; conditions: 10 days
Procedure, shortened: as §1

soybean (Glycine max) [3] = experiment: as above; conditions: 10 days
Procedure, shortened: as §1

corn (Zea mays) [4] = experiment: as above; conditions: 10 days
Procedure, shortened: as §1

[5] = test system: green foxtail (Setaria viridis); experiment: as above; conditions: 10 days
Procedure, shortened: as §1

[6] = test system: palmer (palmer amaranth, palmer pigweed, Amaranthus palmeri); experiment: as above; conditions: 10 days
Procedure, shortened: as §1

[7] = test system: ryegrass, Italian (italian ryegrass, Lolium multiflorum); experiment: as above; conditions: 10 days
Procedure, shortened: as §1

[8] = test system: wheat (Triticum aestivum); experiment: as above; conditions: 10 days
Procedure, shortened: as §1

[9] = test system: blackgrass (Alopecurus myosuroides); experiment: as above; conditions: 10 days
Procedure, shortened: as §1

[10] = test system: ragweed (common ragweed, Ambrosia artemisiifolia); experiment: as above; conditions: 10 days
Procedure, shortened: as §1

[11] = test system: barnyardgrass (Echinochloa crus-galli); experiment: as above; conditions: 10 days
Procedure, shortened: as §1

[12] = test system: oat, wild (wild oat, Avena fatua); experiment: Test A postemergence application, visual injury rating 0-100
Procedure, shortened: as §1

kochia (Bassia scoparia) [13] = experiment: as above
Procedure, shortened: as §1

[14] = test system: galium (catchweed bedstraw, Galium aparine); experiment: as above
Procedure, shortened: as §1

soybean (Glycine max) [15] = experiment: as above
Procedure, shortened: as §1

corn (Zea mays) [16] = experiment: as above
Procedure, shortened: as §1

[17] = test system: green foxtail (Setaria viridis); experiment: as above
Procedure, shortened: as §1

[18] = test system: palmer (palmer amaranth, palmer pigweed, Amaranthus palmeri); experiment: as above
Procedure, shortened: as §1

[19] = test system: ryegrass, Italian (italian ryegrass, Lolium multiflorum); experiment: as above
Procedure, shortened: as §1

[20] = test system: wheat (Triticum aestivum); experiment: as above
Procedure, shortened: as §1

[21] = test system: blackgrass (Alopecurus myosuroides); experiment: as above
Procedure, shortened: as §1

[22] = test system: ragweed (common ragweed, Ambrosia artemisiifolia); experiment: as above
Procedure, shortened: as §1

[23] = test system: barnyardgrass (Echinochloa crus-galli); experiment: as above
Procedure, shortened: as §1

[24] = test system: ducksalad (Heteranthera limosa); experiment: Test B flooded paddy test, visual plant response rating 0-100; conditions: 250 g ai/ha, Flood, applied to paddy water, evaluated after 13 days
Procedure, shortened: (§2)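 Greenhouse, 13 d. Seedlings at 2-leaf stage, pots flooded to 3 cm, compound delivered into floodwater, water level held constant. Evaluated visually relative to controls.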

[25] = test system: barnyardgrass (Echinochloa crusgalli); experiment: as above; conditions: 250 g ai/ha, Flood, applied to paddy water, evaluated after 13 days
Procedure, shortened: as §2

[26] = test system: sedge, umbrella (small-flower umbrella sedge, Cyperus difformis); experiment: as above; conditions: 250 g ai/ha, Flood, applied to paddy water, evaluated after 13 days
Procedure, shortened: as §2

rice (Oryza sativa) = experiment: as above; conditions: 250 g ai/ha, Flood, applied to paddy water, evaluated after 13 days
Procedure, shortened: as §2

[27] = 62 g ai/ha, 0 = no effect, 100 = complete control
[28] = 62 g ai/ha, postemergence, 10 days, 0 = no effect, 100 = complete control
[29] = Postemergence, 16 g ai/ha, greenhouse 10 days, 0 no effect, 100 complete control

Which “Oat, Wild plant response rating” value ([1]; 16 g ai/ha, 0 to 100 scale) does the source give for C=CC1(C(=O)NC2COC(C(=O)OC)C2)CN(c2cc(F)cc(F)c2)C(=O)O1 (centres unmarked) [Compound 171] here?
The value was 20.

What about the “Oat, Wild plant response rating (0-100)” value [1, 27] of the same molecule?
The value was 90.

What about the “Kochia plant response rating” value (kochia (Bassia scoparia) [2]; 16 g ai/ha, 0 to 100 scale) of the same molecule?
The value was 30.

What about the “Kochia plant response rating (0-100)” value (kochia (Bassia scoparia) [2]; [27]) of the same molecule?
The value was 40.

What about the “Soybean plant response rating” value (soybean (Glycine max) [3]; 16 g ai/ha, 0 to 100 scale) of the same molecule?
The value was 0.

And the “Soybean plant response rating (0-100)” value (soybean (Glycine max) [3]; [27])?
The value was 20.

What about the “Corn plant response rating” value (corn (Zea mays) [4]; 16 g ai/ha, 0 to 100 scale) of the same molecule?
Its value is 0.

What about the “Corn plant response rating (0-100)” value (corn (Zea mays) [4]; [27]) of the same molecule?
The value was 40.

What about the “Foxtail, Green plant response rating” value ([5]; 16 g ai/ha, 0 to 100 scale) of the same molecule?
The value was 0.

What about the “Foxtail, Green plant response rating (0-100)” value [5, 27] of the same molecule?
Its value is 90.

What about the “Pigweed, Palmer plant response rating” value ([6]; 16 g ai/ha, 0 to 100 scale) of the same molecule?
The value was 0.

And the “Pigweed, Palmer plant response rating (0-100)” value [6, 27]?
The value was 70.

And the “Ryegrass, Italian plant response rating” value ([7]; 16 g ai/ha, 0 to 100 scale)?
Its value is 20.

What about the “Ryegrass, Italian plant response rating (0-100)” value [7, 27] of the same molecule?
Its value is 90.

And the “Wheat plant response rating” value ([8]; 16 g ai/ha, 0 to 100 scale)?
Its value is 60.

What about the “Wheat plant response rating (0-100)” value [8, 27] of the same molecule?
Its value is 90.

And the “Blackgrass plant response rating” value ([9]; 16 g ai/ha, 0 to 100 scale)?
The value was 20.

And the “Blackgrass plant response rating (0-100)” value [9, 27]?
Its value is 90.

And the “Ragweed plant response rating” value ([10]; 16 g ai/ha, 0 to 100 scale)?
Its value is 0.

What about the “Ragweed plant response rating (0-100)” value [10, 27] of the same molecule?
Its value is 0.

What about the “Barnyardgrass plant response rating” value ([11]; 16 g ai/ha, 0 to 100 scale) of the same molecule?
The value was 0.

What about the “Barnyardgrass plant response rating (0-100)” value [11, 27] of the same molecule?
Its value is 90.

What about the “Oat, Wild plant response rating (0-100)” value [12, 28] of the same molecule?
Its value is 90.

What about the “Oat, Wild plant response rating (0 to 100 scale)” value [12, 29] of the same molecule?
The value was 90.

What about the “Kochia plant response rating (0-100)” value (kochia (Bassia scoparia) [13]; [28]) of the same molecule?
The value was 80.

What about the “Kochia plant response rating (0 to 100 scale)” value (kochia (Bassia scoparia) [13]; [29]) of the same molecule?
Its value is 60.

And the “Galium plant response rating (0-100)” value [14, 28]?
Its value is 80.

What about the “Galium plant response rating (0 to 100 scale)” value [14, 29] of the same molecule?
The value was 80.

What about the “Soybean plant response rating (0-100)” value (soybean (Glycine max) [15]; [28]) of the same molecule?
Its value is 80.

And the “Soybean plant response rating (0 to 100 scale)” value (soybean (Glycine max) [15]; [29])?
The value was 70.

And the “Corn plant response rating (0-100)” value (corn (Zea mays) [16]; [28])?
The value was 90.

And the “Corn plant response rating (0 to 100 scale)” value (corn (Zea mays) [16]; [29])?
Its value is 80.

And the “Foxtail, Green plant response rating (0-100)” value [17, 28]?
The value was 90.

And the “Foxtail, Green plant response rating (0 to 100 scale)” value [17, 29]?
The value was 80.

And the “Pigweed, Palmer plant response rating (0-100)” value [18, 28]?
Its value is 80.

What about the “Pigweed, Palmer plant response rating (0 to 100 scale)” value [18, 29] of the same molecule?
The value was 60.

What about the “Ryegrass, Italian plant response rating (0-100)” value [19, 28] of the same molecule?
The value was 70.

And the “Ryegrass, Italian plant response rating (0 to 100 scale)” value [19, 29]?
Its value is 20.

What about the “Wheat plant response rating (0-100)” value [20, 28] of the same molecule?
The value was 90.

And the “Wheat plant response rating (0 to 100 scale)” value [20, 29]?
Its value is 80.

What about the “Blackgrass plant response rating (0-100)” value [21, 28] of the same molecule?
Its value is 70.

And the “Blackgrass plant response rating (0 to 100 scale)” value [21, 29]?
The value was 70.

And the “Ragweed plant response rating (0-100)” value [22, 28]?
Its value is 30.

What about the “Ragweed plant response rating (0 to 100 scale)” value [22, 29] of the same molecule?
Its value is 30.

And the “Barnyardgrass plant response rating (0-100)” value [23, 28]?
Its value is 80.

What about the “Barnyardgrass plant response rating (0 to 100 scale)” value [23, 29] of the same molecule?
The value was 70.

What about the “Plant response rating, Ducksalad (0 to 100 scale, 0 is no effect and 100 is complete control)” value [24] of the same molecule?
Its value is 50.

What about the “Plant response rating, Barnyardgrass (0 to 100 scale, 0 is no effect and 100 is complete control)” value [25] of the same molecule?
Its value is 60.

And the “Plant response rating, Sedge, Umbrella (0 to 100 scale, 0 is no effect and 100 is complete control)” value [26]?
Its value is 45.

And the “Plant response rating, Rice (0 to 100 scale, 0 is no effect and 100 is complete control)” value (rice (Oryza sativa))?
Its value is 45.
